Here are results for 3 compounds from US9289496B2, “Lipid dipeptide and gel” (Nissan Chemical Industries, Ltd., priority 2008, dated 2016).

Entries after “also recorded” stand apart in the source; their conditions may differ. Residues, ends and D or L forms follow the SMILES beside them.

The nature of series [1]: Evaluation of gelation of lipid peptides with pure water. It counts as physicochemical. The procedure: Each of the lipid peptides synthesized in Examples 1, 6, 7, 8, and 10 was placed in a sample tube. Pure water (without metals and ions) was added so that a solution would have a lipid peptide concentration of 0.25 or 0.5% (w/v) (w means mass (g), and v means volume (mL)). The mixture was heated at 90° C. or more to dissolve the lipid peptide, and then allowed to cool.

A short description of series [2]: Evaluation of gelation of lipid peptides with phosphate buffer. It counts as physicochemical. The note with it: for Gel formation: acidic region (pH=2.6). The procedure:
Each of the lipid peptides synthesized in Examples 3 to 10 and Example 14 was placed in a sample tube. Each of three phosphate buffers (PBS) (pH=2.6, 7.4, or 10) was added so that a solution would have a lipid peptide concentration of 0.25 or 0.5% (w/v) (conditions A to F). Then, the mixture was heated at 90° C. or more to dissolve the lipid peptide, and then allowed to cool.

Series [3] in a line: Evaluation of gelation of N-palmitoyl-Gly-His.TFA salt with various solutions. The series is classed as physicochemical. The procedure:
Each N-palmitoyl-Gly-His trifluoroacetate synthesized in Examples 1 to 3 was placed in a screw tube (Maruemu No. 1, manufactured by Maruemu Corp.). Each of various solutions shown in Table 3 was added so as to have an N-palmitoyl-Gly-His.TFA salt (also called Pal-GH (TFA)) concentration of 0.5 or 1% (w/v). The mixture was heated at 100° C. with a constant temperature heat block (manufactured by Nippon Genetics Co., Ltd.), and then allowed at room temperature.

The nature of series [4]: Gel sheet formation and stability of gel on water immersion. The series is classed as physicochemical. The following applies: 72 hours. How it is done: Into a screw tube (Maruemu No. 3, manufactured by Maruemu Corp.), 3 mg of N-palmitoyl-Gly-His (TFA) prepared in Example 1 was placed, and 0.6 ml of Japanese Pharmacopoeia purified water (Kyoei Pharmaceutical Industries, Ltd.) was added into the screw tube so as to have a concentration of 0.5% (w/v). The whole was heated at 105° C. for 5 minutes, and then allowed to stand at room temperature to prepare a gel of 0.5% N-palmitoyl-Gly-His (TFA).
To the gel, 2 ml of Japanese Pharmacopoeia purified water (Kyoei Pharmaceutical Industries, Ltd.) was further added and sheet formation was observed from a wide view for 72 hours.
Into a screw tube (Maruemu No. 3, manufactured by Maruemu Corp.), 9.1 mg of N-palmitoyl-Gly-His.TFA salt prepared in Example 1 was placed, and 0.91 ml of Japanese Pharmacopoeia purified water (Kyoei Pharmaceutical Industries, Ltd.) and 0.91 ml of glycerin (Junsei Chemical Co., Ltd.) were added into the screw tube so as to have a concentration of 0.5% (w/v). The whole was heated at 105° C. for 5 minutes, and then allowed to stand at room temperature to prepare a gel of 0.5% N-palmitoyl-Gly-His.TFA salt in a glycerin solution.
Into the gel, 2 ml of Japanese Pharmacopoeia purified water (Kyoei Pharmaceutical Industries, Ltd.) was further added and sheet formation was observed from a wide view for 72 hours.
Into a screw tube (Maruemu No. 3, manufactured by Maruemu Corp.), 4.6 mg of N-palmitoyl-Gly-His.TFA salt prepared in Example 1 was placed, and 0.46 ml of glycerin was added into the screw tube so as to have a concentration of 1% (w/v). The whole was heated at 105° C. for 5 minutes, and then allowed to stand at room temperature to prepare a gel of 1% N-palmitoyl-Gly-His.TFA salt in glycerin.
(§1) Each of the 50.4 mg of N-palmitoyl-Gly-His.TFA salt prepared in Examples 1 to 3 was placed into a screw tube (Maruemu No. 7, manufactured by Maruemu Corp.). Into the screw tube, 1 ml of polyethylene glycol 400 (Wako Pure Chemical Industries, Ltd.), 1.5 ml of ethanol, and 8 ml of 70% glycerin (Junsei Chemical Co.) in water were added so as to have an N-palmitoyl-Gly-His TFA salt concentration of 0.5% (w/v). The mixture was heated with a dry bath incubator (manufactured by First Gene) (105° C., for 8 minutes), and then allowed to stand at room temperature to form a gel.
Into the gel, 20 ml of Japanese Pharmacopoeia purified water (Kyoei Pharmaceutical Industries, Ltd.) was further added and whether sheet formation occurred or not was observed from a wide view for 72 hours.
(§2) Each of the 52.5 mg of N-palmitoyl-Gly-His.TFA salt prepared in Examples 1 to 3 was added into a screw tube (Maruemu No. 7, manufactured by Maruemu Corp.). Into the screw tube, 0.5 ml of polyethylene glycol 400 (Wako Pure Chemical Industries, Ltd.), 1 ml of ethanol, and 8 ml of 70% glycerin (Junsei Chemical Co.) in water were added so as to have an N-palmitoyl-Gly-His.TFA salt concentration of 0.5% (w/v). The mixture was heated with a dry bath incubator (manufactured by First Gene) (105° C., for 8 minutes), and then allowed to stand at room temperature to form a gel.
(§3) Each of the 50.2 mg of palmitoyl-Gly-His.TFA salt prepared in Examples 1 to 3 was placed into a screw tube (Maruemu No. 7, manufactured by Maruemu Corp.) together with 104.7 mg of indomethacin and 220 mg of I-menthol. Into the screw tube, 0.5 ml of polyethylene glycol 400 (Wako Pure Chemical Industries, Ltd.), 1.5 ml of ethanol, 8 ml of 70% glycerin (Junsei Chemical Co., Ltd.) in water were added so as to have an N-palmitoyl-Gly-His.TFA salt concentration of 0.5% (w/v). […] The texture of the gel was smooth and cool.
After ascertainment of the gel formation, the gel was allowed to stand at room temperature for 45 days. Then, 20 ml of Japanese Pharmacopoeia purified water (Kyoei Pharmaceutical Industries, Ltd.) was added and sheet formation was observed from a wide view for 72 hours. […]

Series [5] can be described thus: Gel formation in glycerin, polyethylene glycol 400 and ethanol medium. The series is classed as physicochemical. The following applies: 8 ml 70% glycerin in water. How it is done:
as §1, §2, §3

Series [6] in a line: Usable mediums: solubility and gel formation, conventional art vs palmitoyl-Gly-His. It counts as physicochemical.
The conditions of series [7]: cited from earlier work.

On to `CCCCCCCCCCCCCCCC(=O)NCC(=O)N[C@@H](Cc1c[nH]cn1)C(=O)O.O=C(O)C(F)(F)F` [Example 1, N-palmitoyl-Gly-His.TFA salt] (HELM PEPTIDE1{[CCCCCCCCCCCCCCCC(=O)[*:2]].G.H}$$$$V2.0), for which the Gelation entry in series [1] (lipid peptide 0.25% (w/v)) was “◯”; in series [1] (lipid peptide 0.50% (w/v)), “◯”; in series [2] (condition A: phosphate buffer pH = 2.6, 0.5% (w/v)), “◯”; in series [2] (condition B: phosphate buffer pH = 2.6, 0.25% (w/v)), “◯”; in series [2] (condition C: phosphate buffer pH-7.4, 0.5% (w/v)), “◯”; in series [2] (condition D: phosphate buffer pH-7.4, 0.25% (w/v)), “◯”. Also, the Gelation entry in series [2] (condition E: phosphate buffer pH = 10, 0.5% (w/v)) was “◯”. For the same compound, the “Gel formation” value in series [2] (concentration 0.25%) is “formed gels”; in series [2] (concentration 0.5%) it was “formed gels”; in series [5] (0.5% (w/v) with 104.7 mg indomethacin and 220 mg l-menthol, 0.5 ml polyethylene glycol 400, 1.5 ml ethanol), “pale yellow gel”; in series [5] (0.5% (w/v), 0.5 ml polyethylene glycol 400, 1 ml ethanol), “form a gel”; in series [5] (0.5% (w/v), 1 ml polyethylene glycol 400, 1.5 ml ethanol) it was “form a gel”. Also, the Gel state entry in series [3] (50% 1,3-butanediol aqueous solution, 0.5% (w/v)) was “White gel”; in series [3] (50% glycerin aqueous solution, 0.5% (w/v)) it was “White gel”; in series [3] (50% liquid paraffin aqueous solution, 0.5% (w/v)), “White gel”; in series [3] (50% polyethylene glycol 400 aqueous solution, 0.5% (w/v)) it was “White gel”; in series [3] (50% propylene glycol aqueous solution, 0.5% (w/v)), “White gel”; in series [3] (70% glycerin aqueous solution, 0.5% (w/v)), “Transparent gel”. In addition, the Gel state result is given as “Transparent gel” in series [3] (Glycerin, 1.0% (w/v)) and “Transparent gel” in series [3] (Polyethylene glycol 400, 1.0% (w/v)). Besides, the “Gel behaviour on immersion in purified water, sheet formation” value is “not dissolved during water immersion and the formation of a sheet-shaped gel was observed” in series [4] (0.5% (w/v) gel in 0.5 ml polyethylene glycol 400, 1 ml ethanol, 8 ml 70% glycerin, 20 ml water added); “not dissolved during water immersion and the formation of a sheet-shaped gel was observed” in series [4] (0.5% (w/v) gel in 1 ml polyethylene glycol 400, 1.5 ml ethanol, 8 ml 70% glycerin, 20 ml water added); “not dissolved during water immersion and the formation of a sheet-shaped gel was observed” in series [4] (0.5% (w/v) gel in glycerin solution (0.91 ml water + 0.91 ml glycerin), 2 ml water added); “not dissolved during water immersion and the formation of a sheet-shaped gel was observed; also recorded: did not dissolve during water immersion and the formation of a sheet-shaped gel was observed” in series [4] (0.5% (w/v) gel in purified water, 2 ml water added); “not dissolved during water immersion and the formation of a sheet-shaped gel was observed” in series [4] (0.5% (w/v) gel including indomethacin and l-menthol, after 45 days at room temperature, 20 ml water added); “not dissolved during water immersion and the formation of a sheet-shaped gel was observed” in series [4] (1% (w/v) gel in glycerin, 2 ml water added).
As to `CCCCCCCCCCCCCCCC(=O)NCC(=O)NCC(=O)NCC(=O)N[C@@H](Cc1c[nH]cn1)C(=O)O` [palmitoyl-Gly-Gly-Gly-His] (HELM PEPTIDE1{[CCCCCCCCCCCCCCCC(=O)[*:2]].G.G.G.H}$$$$V2.0), the Solubility in medium result in series [6] (50 mM acetate buffer with pH 5, even when heated) is given as “insoluble”; in series [6] (50 mM citrate buffer with pH 5, even when heated), “insoluble”. For the same compound, the Gel formation result in series [6] (ethanol/water mixed solvent having an ethanol concentration of 80% or more) was “does not form a gel”. Moreover, the lowest gelation concentration in series [7] (Non-patent Document 10) was 0.03 wt %.
For the compound `CCCCCCCCCCCCCCCC(=O)NCC(=O)NCC(=O)N[C@@H](Cc1c[nH]cn1)C(=O)O` [palmitoyl-Gly-Gly-His] (HELM PEPTIDE1{[CCCCCCCCCCCCCCCC(=O)[*:2]].G.G.H}$$$$V2.0), the gelation properties result in series [7] (background art) is recorded as “has gelation properties”.
